The results in this text go back to ChEMBL document CHEMBL1201862, “PubChem BioAssay data set” (2004).

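Briefly, cells in 96-well plates were exposed to five compound concentrations for 48 h, and endpoints were estimated by linear interpolation. GI50 marks 50% less growth.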 Activity calls are given as the source filed them. No stated cut-off is given here; in the data, active = GI50 up to about 1.1 µM and inactive = higher.

Test systems include LOX IMVI; SR; A549; SNB-19; SF-539; HT-29; IGROV-1; HCT-116; OVCAR-5; OVCAR-3; HL-60; CAKI-1; UACC-62; Malme-3M; COLO 205; M14; UO-31; SF-295; 786-0; KM12.
What all share (assay): NCI-60 cell line screen, 48 h

For `COc1ccc2nc3c([N+](=O)[O-])ccc(NCCN(C)C)c3c(N)c2c1`, the GI50 with LOX IMVI was 0.537 µM (active); with SR, 0.679 µM (active); in the assay on A549, 1.55 µM (inactive); with SNB-19, 1.84 µM (inactive); in the assay on SF-539, 1.56 µM (inactive); with HT-29, 0.508 µM (active). The GI50 in the assay with IGROV-1 was 1.15 µM (inactive); in the assay on HCT-116 it was 0.145 µM (active); in the assay with OVCAR-5, 1.52 µM (inactive); in the assay with OVCAR-3 it was 0.562 µM (active); with HL-60, 0.194 µM (active); in the assay on CAKI-1, 1.8 µM (inactive). The GI50 in the assay on UACC-62 is 1.82 µM (inactive); with Malme-3M it was 1.34 µM (inactive); in the assay on COLO 205, 0.859 µM (active); with M14, 1.49 µM (inactive); in the assay with UO-31, 1.35 µM (inactive); with SF-295, 1.75 µM (inactive). Further, the results for the GI50 in the assay with 786-0 and with KM12 were 1.18 µM (inactive) and 0.469 µM (active), respectively.

Take `COC(=O)[C@]1(C)CCC[C@@]2(C)C1CCC1=CC3(C(C)C)CCC12OO3` (stereo not given in full): the GI50 in the assay with LOX IMVI was 81.1 µM (inactive); in the assay on SR, 27.9 µM (inactive); with A549, 44 µM (inactive); in the assay with SNB-19 it was > 100 µM (inactive); with SF-539, > 100 µM (inactive); in the assay with HT-29, 34.4 µM (inactive). For the same compound, the GI50 in the assay with IGROV-1 is > 100 µM (inactive); in the assay with HCT-116 it was 42 µM (inactive); in the assay on OVCAR-5 it was > 100 µM (inactive); in the assay on OVCAR-3 it was > 100 µM (inactive); with HL-60, 15.9 µM (inactive); in the assay with CAKI-1 it was 80.5 µM (inactive). Further, the GI50 with UACC-62 was 57 µM (inactive); in the assay with Malme-3M, 36.2 µM (inactive); with COLO 205 it was > 100 µM (inactive); in the assay with M14, 74 µM (inactive); in the assay on UO-31 it was 41 µM (inactive); in the assay with SF-295, 46.5 µM (inactive). The results for the GI50 with 786-0 and in the assay with KM12 were 85.3 µM (inactive) and > 100 µM (inactive), respectively.

For `O=C1C2C3CC(C4C5C=CC(C5)C34)C2C2C3CC(C12)C1C2C=CC(C2)C31` (stereo not given), the GI50 is 28.8 µM (inactive) in the assay with LOX IMVI; > 100 µM (inactive) in the assay with SR; > 100 µM (inactive) in the assay with A549; > 100 µM (inactive) in the assay on SNB-19; > 100 µM (inactive) in the assay with SF-539; > 100 µM (inactive) with HT-29. Besides, the GI50 in the assay with IGROV-1 is > 100 µM (inactive); with HCT-116 it was > 100 µM (inactive); in the assay with OVCAR-5, > 100 µM (inactive); in the assay on OVCAR-3, > 100 µM (inactive); in the assay with HL-60, 75.2 µM (inactive); in the assay with CAKI-1 it was > 100 µM (inactive). The GI50 in the assay on UACC-62, in the assay with Malme-3M, in the assay with COLO 205, in the assay with M14, in the assay on UO-31 and in the assay on SF-295 was > 100 µM (inactive) throughout. In addition, the GI50 with 786-0 and in the assay on KM12 was > 100 µM (inactive) each time.

Turning to `CSC1(SC2=NCCN2)SC2(NCCN2)S1`, the GI50 in the assay on LOX IMVI is 10.5 µM (inactive); in the assay with SR, 5.7 µM (inactive); in the assay with A549, 20.3 µM (inactive); in the assay with SNB-19, 20.3 µM (inactive); in the assay on SF-539 it was 16.7 µM (inactive); in the assay with HT-29, 18.7 µM (inactive). The GI50 in the assay on IGROV-1 was 18.6 µM (inactive); in the assay on HCT-116 it was 17 µM (inactive); in the assay on OVCAR-5 it was 19.5 µM (inactive); with OVCAR-3, 15.8 µM (inactive); with HL-60, 21 µM (inactive); in the assay on CAKI-1, 13.6 µM (inactive). The GI50 in the assay with UACC-62 is 16.9 µM (inactive); in the assay with Malme-3M, 17.6 µM (inactive); in the assay with COLO 205 it was 21.3 µM (inactive); with M14 it was 21.3 µM (inactive); in the assay on UO-31, 17.3 µM (inactive); in the assay with SF-295, 27.8 µM (inactive). The GI50 was 3.86 µM (inactive) in the assay on 786-0 and 2.3 µM (inactive) with KM12.
